Assay: recombinant UMI read abundance after kanamycin selection (control-corrected) (log10(CPM+1)); higher = more efficient recombination; extreme values may be limits of the assay; sequences stand for … in AGTGCAGAGAAAATCGGCCAGTTTTCTCTGCCTGCAGTCCGCATGCCGTGGGACCCCTTGGGTTCTAACCTGTTGCCTAGATTTATGCAGCGGACTGCCTTTCTCCCAAAGTGATAAACCGG…AGGTTGGTTTCACT; site = the 11-nt donor
Procedure, shortened: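 In a pooled Escherichia coli screen for the IS621 bridge recombinase, donor and donor-binding-loop pairs were each placed with a 12-nt UMI on a plasmid bearing a promoterless kanamycin gene. This library was co-electroporated with a target plasmid encoding a fixed target and T7-inducible recombinase, and cells were plated either on IPTG (0.07 mM) plus kanamycin or without selection, in two replicates each. Recombinant UMIs were PCR-amplified across the donor–target junction and sequenced, and counts were converted to CPM, averaged over replicates, scaled by control-derived factors and reported as log10(CPM+1).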
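Further: IS621 bridge recombinase in Escherichia coli cells against a fixed T5 target plasmid.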

Sequence: CCGTTAGCATGGACCGGTTTTCCCGGTAATCCGTATTTGTA (site CCGTTAGCTAA)
- recombinant UMI read abundance (log10): 0.0181

Sequence: CCGTTAGCATGGACCGGTTTTCCCGGTAATCCGTATTTGTA (site CCGTTAGCTCA)
- recombinant UMI read abundance (log10): 0.00671

Sequence: CCGTTAGCATGGACCGGTTTTCCCGGTAATCCGTATTTGTA (site CCGTTAGCTGA)
- recombinant UMI read abundance (log10): 0

Sequence: CCGTTAGCATGGACCGGTTTTCCCGGTAATCCGTATTTGTA (site CCGTTAGCTTA)
- recombinant UMI read abundance (log10): 0.601

Sequence: CCGTTAGCATGGACCGGTTTTCCCGGTAATCCGTATTTGTC (site CCGTTAGCTAA)
- recombinant UMI read abundance (log10): 0.0291

Sequence: CCGTTAGCATGGACCGGTTTTCCCGGTAATCCGTATTTGTC (site CCGTTAGCTCA)
- recombinant UMI read abundance (log10): 0.00762

Sequence: CCGTTAGCATGGACCGGTTTTCCCGGTAATCCGTATTTGTC (site CCGTTAGCTGA)
- recombinant UMI read abundance (log10): 1.58

Sequence: CCGTTAGCATGGACCGGTTTTCCCGGTAATCCGTATTTGTC (site CCGTTAGCTTA)
- recombinant UMI read abundance (log10): 0.396

Sequence: CCGTTAGCATGGACCGGTTTTCCCGGTAATCCGTATTTGTT (site CCGTTAGCTAA)
- recombinant UMI read abundance (log10): 1.02

Sequence: CCGTTAGCATGGACCGGTTTTCCCGGTAATCCGTATTTGTT (site CCGTTAGCTCA)
- recombinant UMI read abundance (log10): 0.00936

Sequence: CCGTTAGCATGGACCGGTTTTCCCGGTAATCCGTATTTGTT (site CCGTTAGCTGA)
- recombinant UMI read abundance (log10): 0

Sequence: CCGTTAGCATGGACCGGTTTTCCCGGTAATCCGTATTTGTT (site CCGTTAGCTTA)
- recombinant UMI read abundance (log10): 0.00339

Sequence: CCGTTATCATGGACCGGTTTTCCCGGTAATCCGTATTTGTG (site CCGTTAACTCA)
- recombinant UMI read abundance (log10): 0.0485

Sequence: CCGTTATCATGGACCGGTTTTCCCGGTAATCCGTATTTGTG (site CCGTTACCTCA)
- recombinant UMI read abundance (log10): 0.00831

Sequence: CCGTTATCATGGACCGGTTTTCCCGGTAATCCGTATTTGTG (site CCGTTAGCTCA)
- recombinant UMI read abundance (log10): 0.0138

Sequence: CCGTTATCATGGACCGGTTTTCCCGGTAATCCGTATTTGTG (site CCGTTATCTCA)
- recombinant UMI read abundance (log10): 0.662

Sequence: CCGTTCTCATGGACCGGTTTTCCCGGTAATCCGTATTTGGA (site CCGTTCTCTTC)
- recombinant UMI read abundance (log10): 0

Sequence: CCGTTTACATGGACCGGTTTTCCCGGTAATCCGTATTTGGT (site CCGTTTACTAA)
- recombinant UMI read abundance (log10): 0.00739

Sequence: CCGTTTACATGGACCGGTTTTCCCGGTAATCCGTATTTGGT (site CCGTTTACTAC)
- recombinant UMI read abundance (log10): 0.279

Sequence: CCGTTTACATGGACCGGTTTTCCCGGTAATCCGTATTTGGT (site CCGTTTACTAG)
- recombinant UMI read abundance (log10): 0

Sequence: CCGTTTACATGGACCGGTTTTCCCGGTAATCCGTATTTGGT (site CCGTTTACTAT)
- recombinant UMI read abundance (log10): 0

Sequence: CCGTTTCCATGGACCGGTTTTCCCGGTAATCCGTATTTGAC (site CCGTTTCCTGT)
- recombinant UMI read abundance (log10): 0

Sequence: CCGTTTTCATGGACCGGTTTTCCCGGTAATCCGTATTTGCT (site CCGTTTACTAG)
- recombinant UMI read abundance (log10): 0

Sequence: CCGTTTTCATGGACCGGTTTTCCCGGTAATCCGTATTTGCT (site CCGTTTCCTAG)
- recombinant UMI read abundance (log10): 0.00608

Sequence: CCGTTTTCATGGACCGGTTTTCCCGGTAATCCGTATTTGCT (site CCGTTTGCTAG)
- recombinant UMI read abundance (log10): 0

Sequence: CCGTTTTCATGGACCGGTTTTCCCGGTAATCCGTATTTGCT (site CCGTTTTCTAG)
- recombinant UMI read abundance (log10): 0

Sequence: CCTAAAGCATGGACCGGTTTTCCCGGTAATCCGTATTTGAT (site ACTAAAGCTAT)
- recombinant UMI read abundance (log10): 0

Sequence: CCTAAAGCATGGACCGGTTTTCCCGGTAATCCGTATTTGAT (site CATAAAGCTAT)
- recombinant UMI read abundance (log10): 0

Sequence: CCTAAAGCATGGACCGGTTTTCCCGGTAATCCGTATTTGAT (site CCAAAAGCTAT)
- recombinant UMI read abundance (log10): 0

Sequence: CCTAAAGCATGGACCGGTTTTCCCGGTAATCCGTATTTGAT (site CCCAAAGCTAT)
- recombinant UMI read abundance (log10): 0.0148

Sequence: CCTAAAGCATGGACCGGTTTTCCCGGTAATCCGTATTTGAT (site CCGAAAGCTAT)
- recombinant UMI read abundance (log10): 0

Sequence: CCTAAAGCATGGACCGGTTTTCCCGGTAATCCGTATTTGAT (site CCTAAAACTAT)
- recombinant UMI read abundance (log10): 0

Sequence: CCTAAAGCATGGACCGGTTTTCCCGGTAATCCGTATTTGAT (site CCTAAACCTAT)
- recombinant UMI read abundance (log10): 0.00391

Sequence: CCTAAAGCATGGACCGGTTTTCCCGGTAATCCGTATTTGAT (site CCTAAAGCTAA)
- recombinant UMI read abundance (log10): 0

Sequence: CCTAAAGCATGGACCGGTTTTCCCGGTAATCCGTATTTGAT (site CCTAAAGCTAC)
- recombinant UMI read abundance (log10): 0

Sequence: CCTAAAGCATGGACCGGTTTTCCCGGTAATCCGTATTTGAT (site CCTAAAGCTAG)
- recombinant UMI read abundance (log10): 0

Sequence: CCTAAAGCATGGACCGGTTTTCCCGGTAATCCGTATTTGAT (site CCTAAAGCTAT)
- recombinant UMI read abundance (log10): 0.14

Sequence: CCTAAAGCATGGACCGGTTTTCCCGGTAATCCGTATTTGAT (site CCTAAAGCTCT)
- recombinant UMI read abundance (log10): 0.00392

Sequence: CCTAAAGCATGGACCGGTTTTCCCGGTAATCCGTATTTGAT (site CCTAAAGCTGT)
- recombinant UMI read abundance (log10): 0

Sequence: CCTAAAGCATGGACCGGTTTTCCCGGTAATCCGTATTTGAT (site CCTAAAGCTTT)
- recombinant UMI read abundance (log10): 0

Sequence: CCTAAAGCATGGACCGGTTTTCCCGGTAATCCGTATTTGAT (site CCTAAATCTAT)
- recombinant UMI read abundance (log10): 0

Sequence: CCTAAAGCATGGACCGGTTTTCCCGGTAATCCGTATTTGAT (site CCTAACGCTAT)
- recombinant UMI read abundance (log10): 0.035

Sequence: CCTAAAGCATGGACCGGTTTTCCCGGTAATCCGTATTTGAT (site CCTAAGGCTAT)
- recombinant UMI read abundance (log10): 0

Sequence: CCTAAAGCATGGACCGGTTTTCCCGGTAATCCGTATTTGAT (site CCTAATGCTAT)
- recombinant UMI read abundance (log10): 0.00544

Sequence: CCTAAAGCATGGACCGGTTTTCCCGGTAATCCGTATTTGAT (site CCTACAGCTAT)
- recombinant UMI read abundance (log10): 0.0037

Sequence: CCTAAAGCATGGACCGGTTTTCCCGGTAATCCGTATTTGAT (site CCTAGAGCTAT)
- recombinant UMI read abundance (log10): 0.00698

Sequence: CCTAAAGCATGGACCGGTTTTCCCGGTAATCCGTATTTGAT (site CCTATAGCTAT)
- recombinant UMI read abundance (log10): 0.00347

Sequence: CCTAAAGCATGGACCGGTTTTCCCGGTAATCCGTATTTGAT (site CCTCAAGCTAT)
- recombinant UMI read abundance (log10): 0.00248

Sequence: CCTAAAGCATGGACCGGTTTTCCCGGTAATCCGTATTTGAT (site CCTGAAGCTAT)
- recombinant UMI read abundance (log10): 0

Sequence: CCTAAAGCATGGACCGGTTTTCCCGGTAATCCGTATTTGAT (site CCTTAAGCTAT)
- recombinant UMI read abundance (log10): 0.0074

Sequence: CCTAAAGCATGGACCGGTTTTCCCGGTAATCCGTATTTGAT (site CGTAAAGCTAT)
- recombinant UMI read abundance (log10): 0

Sequence: CCTAAAGCATGGACCGGTTTTCCCGGTAATCCGTATTTGAT (site CTTAAAGCTAT)
- recombinant UMI read abundance (log10): 0.00697

Sequence: CCTAAAGCATGGACCGGTTTTCCCGGTAATCCGTATTTGAT (site GCTAAAGCTAT)
- recombinant UMI read abundance (log10): 0

Sequence: CCTAAAGCATGGACCGGTTTTCCCGGTAATCCGTATTTGAT (site TCTAAAGCTAT)
- recombinant UMI read abundance (log10): 0.00543

Sequence: CCTAAAGCATGGACCGGTTTTCCCGGTAATCCGTATTTGGA (site CCTAAAGCTTC)
- recombinant UMI read abundance (log10): 0.0116

Sequence: CCTAAGACATGGACCGGTTTTCCCGGTAATCCGTATTTGGC (site CCTAAAACTGC)
- recombinant UMI read abundance (log10): 0

Sequence: CCTAAGACATGGACCGGTTTTCCCGGTAATCCGTATTTGGC (site CCTAACACTGC)
- recombinant UMI read abundance (log10): 0

Sequence: CCTAAGACATGGACCGGTTTTCCCGGTAATCCGTATTTGGC (site CCTAAGACTGC)
- recombinant UMI read abundance (log10): 0

Sequence: CCTAAGACATGGACCGGTTTTCCCGGTAATCCGTATTTGGC (site CCTAATACTGC)
- recombinant UMI read abundance (log10): 0

Sequence: CCTAAGGCATGGACCGGTTTTCCCGGTAATCCGTATTTGAT (site CCTAAAGCTAT)
- recombinant UMI read abundance (log10): 0

Sequence: CCTAAGGCATGGACCGGTTTTCCCGGTAATCCGTATTTGAT (site CCTAACGCTAT)
- recombinant UMI read abundance (log10): 0.00671

Sequence: CCTAAGGCATGGACCGGTTTTCCCGGTAATCCGTATTTGAT (site CCTAAGGCTAT)
- recombinant UMI read abundance (log10): 0.0186

Sequence: CCTAAGGCATGGACCGGTTTTCCCGGTAATCCGTATTTGAT (site CCTAATGCTAT)
- recombinant UMI read abundance (log10): 0

Sequence: CCTAATACATGGACCGGTTTTCCCGGTAATCCGTATTTGGC (site ACTAATACTGC)
- recombinant UMI read abundance (log10): 0

Sequence: CCTAATACATGGACCGGTTTTCCCGGTAATCCGTATTTGGC (site CATAATACTGC)
- recombinant UMI read abundance (log10): 0

Sequence: CCTAATACATGGACCGGTTTTCCCGGTAATCCGTATTTGGC (site CCAAATACTGC)
- recombinant UMI read abundance (log10): 0

Sequence: CCTAATACATGGACCGGTTTTCCCGGTAATCCGTATTTGGC (site CCCAATACTGC)
- recombinant UMI read abundance (log10): 0

Sequence: CCTAATACATGGACCGGTTTTCCCGGTAATCCGTATTTGGC (site CCGAATACTGC)
- recombinant UMI read abundance (log10): 0

Sequence: CCTAATACATGGACCGGTTTTCCCGGTAATCCGTATTTGGC (site CCTAAAACTGC)
- recombinant UMI read abundance (log10): 0.00801

Sequence: CCTAATACATGGACCGGTTTTCCCGGTAATCCGTATTTGGC (site CCTAACACTGC)
- recombinant UMI read abundance (log10): 0

Sequence: CCTAATACATGGACCGGTTTTCCCGGTAATCCGTATTTGGC (site CCTAAGACTGC)
- recombinant UMI read abundance (log10): 0

Sequence: CCTAATACATGGACCGGTTTTCCCGGTAATCCGTATTTGGC (site CCTAATACTAC)
- recombinant UMI read abundance (log10): 0.0181

Sequence: CCTAATACATGGACCGGTTTTCCCGGTAATCCGTATTTGGC (site CCTAATACTCC)
- recombinant UMI read abundance (log10): 0.00819

Sequence: CCTAATACATGGACCGGTTTTCCCGGTAATCCGTATTTGGC (site CCTAATACTGA)
- recombinant UMI read abundance (log10): 0.0391

Sequence: CCTAATACATGGACCGGTTTTCCCGGTAATCCGTATTTGGC (site CCTAATACTGC)
- recombinant UMI read abundance (log10): 0

From the supplement of paper PMC11208160
